Consider 20 compounds from US20240124491A1, “METHODS AND COMPOUNDS FOR TREATING FRIEDREICH'S ATAXIA” (Design Therapeutics, Inc., priority 2021, published 2024).

A value given as a limit tells only on which side of the number the result lay.

In general, EC50 refers to the midpoint of the concentration-response curve.

The assay deals with human FXN. The experiment in a line: EC50 assay: FXN mRNA expression by qRT-PCR in GM15850 cells after 48 hrs compound treatment. It counts as cell-based. As to conditions: Homo sapiens, 48 hrs incubation, hFXN expression normalized to hGAPDH (qRT-PCR), read-out: EC50 WT (nM, 48 hr). The essentials: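 FXN transcript, normalized to GAPDH by TaqMan qRT-PCR, read out after 48 hrs of compound on GM15850 cells plated at 150,000 per well. Dosing used five 3-fold steps from 150 nM final, vehicle 0.01% DMSO.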
Regarding `Cc1sc2c(c1C)C(c1ccc(Cl)cc1)=N[C@@H](CC(=O)Nc1ccc(N3CCN(CCOCCOCCOCCOCCOCCOCCNC(=O)CCNC(=O)c4nc(NC(=O)CCNC(=O)c5cc(NC(=O)c6nc(NC(=O)CCNC(=O)c7cc(NC(=O)c8nccn8C)cn7C)cn6C)cn5C)cn4C)CC3)cc1)c1nnc(C)n1-2` [Compound 3], the 50% effective concentration (EC50) was under 100 nM.

Take `Cc1sc2c(c1C)C(c1ccc(Cl)cc1)=N[C@@H](CC(=O)NC1CCN(CCOCCOCCOCCC(=O)NC3(C(=O)NCCOCCOCCOCCOCCNC(=O)CCNC(=O)c4nc(NC(=O)CCNC(=O)c5cc(NC(=O)c6nc(NC(=O)CCNC(=O)c7cc(NC(=O)c8nccn8C)cn7C)cn6C)cn5C)cn4C)CCNCC3)CC1)c1nnc(C)n1-2` [Compound 71]: the half-maximal effective concentration (EC50) lay in the range of 100 to 500 nM. For `Cc1cc(F)cc(C)c1Oc1ccc(C(C)(C)O)cc1-c1cn(C)c(=O)c2[nH]c(C(=O)N3CCN(C4CCN(CCOCCOCCOCCOCCC(=O)NCCCN(CCCNC(=O)CCNC(=O)c5nc(NC(=O)CCNC(=O)c6cc(NC(=O)c7nc(NC(=O)CCNC(=O)c8cc(NC(=O)c9nccn9C)cn8C)cn7C)cn6C)cn5C)CC(F)(F)F)CC4)CC3)cc12` [Compound 169] the value was 100 to 500 nM; for `CCCCCCCC(=O)Nc1ccc(C2=N[C@@H](CC(=O)Nc3ccc(OCCOCCOCCOCCOCCOCCOCCOCCOCCNC(=O)CCNC(=O)c4nc(NC(=O)CCNC(=O)c5cc(NC(=O)c6nc(NC(=O)CCNC(=O)c7cc(NC(=O)c8nccn8C)cn7C)cn6C)cn5C)cn4C)cc3)c3nnc(C)n3-c3sc(C)c(C)c32)cc1` [Compound 203], 100 to 500 nM; for `Cc1sc2c(c1C)C(c1ccc(N)cc1)=N[C@@H](CC(=O)N1CCC(C#CC#CC3CCN(CCOCCOCCOCCOCCNC(=O)CCNC(=O)c4nc(NC(=O)CCNC(=O)c5cc(NC(=O)c6nc(NC(=O)CCNC(=O)c7cc(NC(=O)c8nccn8C)cn7C)cn6C)cn5C)cn4C)CC3)CC1)c1nnc(C)n1-2` [Compound 119], under 100 nM. For `Cc1sc2c(c1C)C(c1ccc(Cl)cc1)=N[C@@H](CC(=O)N1CCC(C#CC#CC3CCN(CCNC(=O)CCNC(=O)c4nc(NC(=O)CCNC(=O)c5cc(NC(=O)c6nc(NC(=O)CCNC(=O)c7cc(NC(=O)c8nccn8C)cn7C)cn6C)cn5C)cn4C)CC3)CC1)c1nnc(C)n1-2` [Compound 161] the value was under 100 nM. For `Cc1sc2c(c1C)C(c1ccc(Cl)cc1)=N[C@H](CC(=O)Nc1ccc(OCCOCCOCCOCCOCCOCCOCCOCCOCCNC(=O)CCNC(=O)c3nc(NC(=O)CCNC(=O)c4cc(NC(=O)c5nc(NC(=O)CCNC(=O)c6cc(NC(=O)c7nccn7C)cn6C)cn5C)cn4C)cn3C)cc1)c1nnc(C)n1-2` [Compound 231] the value was under 100 nM.

In the case of `Cc1sc2c(c1C)C(c1ccc(Cl)cc1)=N[C@@H](CC(=O)NC1CCN(C3CN(CCOCCOCCOCCOCCOCCOCCOCCNC(=O)CCNC(=O)c4nc(NC(=O)CCNC(=O)c5cc(NC(=O)c6nc(NC(=O)CCNC(=O)c7cc(NC(=O)c8nccn8C)cn7C)cn6C)cn5C)cn4C)C3)CC1)c1nnc(C)n1-2` [Compound 89], the half-maximal effective concentration (EC50) was under 100 nM.

For the compound `Cc1sc2c(c1C)C(c1ccc(Cl)cc1)=N[C@@H](CC(=O)N1CCC(CN3CCN(CCOCCOCCOCCOCCOCCOCCOCCNC(=O)CCNC(=O)c4nc(NC(=O)CCNC(=O)c5cc(NC(=O)c6nc(NC(=O)CCNC(=O)c7cc(NC(=O)c8nccn8C)cn7C)cn6C)cn5C)cn4C)CC3)CC1)c1nnc(C)n1-2` [Compound 55], the EC50 lay within 100 to 500 nM. With `Cc1sc2c(c1C)C(c1ccc(Cl)cc1)=N[C@@H](CC(=O)N1CCN(C3CN(CCOCCOCCOCCOCCOCCOCCNC(=O)CCNC(=O)c4nc(NC(=O)CCNC(=O)c5cc(NC(=O)c6nc(NC(=O)CCNC(=O)c7cc(NC(=O)c8nccn8C)cn7C)cn6C)cn5C)cn4C)C3)CC1)c1nnc(C)n1-2` [Compound 63] the figure was 100 to 500 nM; with `Cc1sc2c(c1C)C(c1ccc(Cl)cc1)=N[C@@H](CC(=O)Nc1ccc(C#CC#CCNCCOCCOCCOCCOCCOCCNC(=O)CCNC(=O)c3nc(NC(=O)CCNC(=O)c4cc(NC(=O)c5nc(NC(=O)CCNC(=O)c6cc(NC(=O)c7nccn7C)cn6C)cn5C)cn4C)cn3C)cc1)c1nnc(C)n1-2` [Compound 15], under 100 nM.

With `Cc1sc2c(c1C)C(c1ccc(Cl)cc1)=N[C@@H](CC(=O)NC1CCN(CCOCCOCCOCCC(=O)NC3(C(=O)NCCOCCOCCOCCOCCNC(=O)CCNC(=O)c4nc(NC(=O)CCNC(=O)c5cc(NC(=O)c6nc(NC(=O)CCNC(=O)c7cc(NC(=O)c8nccn8C)cn7C)cn6C)cn5C)cn4C)CCN(CC(F)(F)F)CC3)CC1)c1nnc(C)n1-2` [Compound 73], the EC50 lay within 100 to 500 nM. For `Cn1cc(NC(=O)c2nc(NC(=O)CCNC(=O)c3cc(NC(=O)c4nccn4C)cn3C)cn2C)cc1C(=O)NCCC(=O)Nc1cn(C)c(C(=O)NCCC(=O)NCCOCCOCCOCCOCCOCCOCCOCCOCCOc2ccc(NC(=O)c3cc4c(-c5cc(S(C)(=O)=O)ccc5Oc5ccc(F)cc5F)cn(C)c(=O)c4[nH]3)cc2)n1` [Compound 207, N-(5-{[2-({2-[(2-{[26-(4-{14-[2-(2,4-difluorophenoxy)-5-methanesulfonylphenyl]-6-methyl-7-oxo-1H-pyrrolo[2,3-c]pyridine-2-amido}phenoxy)-3,6,9,12,15,18,21,24-octaoxahexacosan-1-yl]carbamoyl]ethyl)carbamoyl]-1-methylimidazol-4-yl}carbamoyl)ethyl]carbamoyl}-1-methylpyrrol-3-yl)-1-methyl-4-(3-{[1-methyl-4-(1-methylimidazole-2-amido)pyrrol-2-yl]formamido]propanamido)imidazole-2-carboxamide] the value was under 100 nM; for `Cc1sc2c(c1C)C(c1ccc(Cl)cc1)=N[C@@H](CC(=O)Nc1ccc(N3CCN(CC4CCN(CCOCCOCCOCCNC(=O)CCNC(=O)c5nc(NC(=O)CCNC(=O)c6cc(NC(=O)c7nc(NC(=O)CCNC(=O)c8cc(NC(=O)c9nccn9C)cn8C)cn7C)cn6C)cn5C)CC4)CC3)cc1)c1nnc(C)n1-2` [Compound 7], 100 to 500 nM; for `COc1ccc2c(c1)C(c1ccc(Cl)cc1)=N[C@@H](CC(=O)N1CCC(C#CC#CC3CCN(CCOCCOCCOCCOCCNC(=O)CCNC(=O)c4nc(NC(=O)CCNC(=O)c5cc(NC(=O)c6nc(NC(=O)CCNC(=O)c7cc(NC(=O)c8nccn8C)cn7C)cn6C)cn5C)cn4C)CC3)CC1)c1nnc(C)n1-2` [Compound 61], under 100 nM. With `Cc1sc2c(c1C)C(c1ccc(Cl)cc1)=N[C@@H](CC(=O)N1CCN(C3CCN(CCOCCOCCOCCOCCOCCOCCNC(=O)CCNC(=O)c4nc(NC(=O)CCNC(=O)c5cc(NC(=O)c6nc(NC(=O)CCNC(=O)c7cc(NC(=O)c8nccn8C)cn7C)cn6C)cn5C)cn4C)CC3)CC1)c1nnc(C)n1-2` [Compound 53] the figure was 100 to 500 nM; with `Cc1sc2c(c1C)C(c1ccc(Cl)cc1)=N[C@@H](CC(=O)Nc1ccc(N3CCN(CC4CCN(CCOCCOCCOCCOCCOCCNC(=O)CCNC(=O)c5nc(NC(=O)CCNC(=O)c6cc(NC(=O)c7nc(NC(=O)CCNC(=O)c8cc(NC(=O)c9nccn9C)cn8C)cn7C)cn6C)cn5C)CC4)CC3)cc1)c1nnc(C)n1-2` [Compound 5], 100 to 500 nM; with `COc1ccc2c(c1)C(c1ccc(Cl)cc1)=N[C@@H](CC(=O)N1CCN(CCOCCOCCOCCN3CCN(CCOCCOCCOCCNC(=O)CCNC(=O)c4nc(NC(=O)CCNC(=O)c5cc(NC(=O)c6nc(NC(=O)CCNC(=O)c7cc(NC(=O)c8nccn8C)cn7C)cn6C)cn5C)cn4C)CC3)CC1)c1nnc(C)n1-2` [Compound 28], over 500 nM. As to `COc1ccc2c(c1)C(c1ccc(Cl)cc1)=N[C@@H](CC(=O)NC1CCN(CCOCCOCCOCCN3CCN(CCOCCOCCOCCNC(=O)CCNC(=O)c4nc(NC(=O)CCNC(=O)c5cc(NC(=O)c6nc(NC(=O)CCNC(=O)c7cc(NC(=O)c8nccn8C)cn7C)cn6C)cn5C)cn4C)CC3)CC1)c1nnc(C)n1-2` [Compound 24], the half-maximal effective concentration (EC50) was 100 to 500 nM.

For the compound `Cc1sc2c(c1C)C(c1ccc(Cl)cc1)=N[C@@H](CC(=O)Nc1ccc(C#CC#CCNCCOCCOCCOCCOCCOCCOCCNC(=O)CCNC(=O)c3nc(NC(=O)CCNC(=O)c4cc(NC(=O)c5nc(NC(=O)CCNC(=O)c6cc(NC(=O)c7nccn7C)cn6C)cn5C)cn4C)cn3C)cc1)c1nnc(C)n1-2` [Compound 14], the EC50 was in the range of 100 to 500 nM.
